The results in this text go back to ChEMBL document CHEMBL1201862, “PubChem BioAssay data set” (2004).

Assay [1] relates to HEK293. In words: PMA/Ionomycin induced NF-kB luciferase assay in 293- NF-kB-Luc stable cells. [Related pubchem assays: 1299, 1270, 1295, 1375, 1287, 1281, 1293, 1291, 1289, 1280, 465, 1364, 1282, 1372, 1365, 1370, 1367, 1366, 1269, 1373, 1292, 1290, 1302, 1371, 1283, 1271, 1294, 1374, 1368, 1369 ]. Type of assay: functional, cell-based. The settings on record: Homo sapiens.

In assay [2] the target is Luciferin 4-monooxygenase (Photinus pyralis, UniProt P08659). Nature of the assay: In vitro luciferase assay using purified luciferase. [Related pubchem assays: 1299, 1270, 1295, 1375, 1287, 1281, 1293, 1291, 1289, 1280, 465, 1364, 1282, 1372, 1365, 1370, 1367, 1366, 1266, 1373, 1292, 1290, 1302, 1371, 1283, 1271, 1294, 1374, 1368, 1369 ].
The subject of assay [3] is HEK293. In words: Cytotoxicity assay in HEK293 cells. [Related pubchem assays (depositor defined):AID1266, AID1269, AID1270, AID1271, AID1280, AID1281, AID1282, AID1283, AID1287, AID1289, AID1290, AID1291, AID1292, AID1293, AID1294, AID1295, AID1299, AID1302, AID1364, AID1365, AID1366, AID1367, AID1369, AID1370, AID1371, AID1372, AID1373, AID1374, AID1375, AID1384 …. Type of assay: functional, cell-based. The settings on record: Homo sapiens.

Assay [4] has as its target Voltage-dependent T-type calcium channel subunit alpha-1H (Homo sapiens, UniProt O95180). The class given is functional.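 Further: channel activity triggered by adding a high calcium stimulation buffer.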
The target of assay [5] is Photoreceptor-specific nuclear receptor (Homo sapiens, UniProt Q9Y5X4). The class given is functional.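 Further: potency for compounds that break the NR2E3 corepressor complex and count as activators.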
The target of assay [6] is Peroxisome proliferator-activated receptor gamma/Nuclear receptor corepressor 2 (Homo sapiens, UniProt P37231+Q9Y618). The class given is functional.
Assay [7] deals with T1, Polyadenylate-binding protein 1 (Homo sapiens, UniProt P11940). Nature of the assay: PABP1 MLLE–PAM2 interaction inhibitors, dose response, miRNA deadenylation inhibitor project, biochemical, fluorescence polarization, Cy5-PAM2 peptide, secondary (AID 602260). Type of assay: functional. The settings on record: read-out: IC50_Mean.
In assay [8] the target is T1, Polyadenylate-binding protein 1. In words: PABP1 MLLE–PAM2 binding inhibitor potency, dose response, biochemical, fluorescence polarization, FITC-PAM2 peptide (AID 602259). The settings on record: read-out: IC50_Mean. Type of assay: functional.
The subject of a further assay is HeLa. Nature of the assay: HeLa cell cytotoxicity, dose response, cytotoxicity control, 24 h, cherry-picked samples (AID 504726).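 Further: potency for cytotoxicity as loss of luminescence signal.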 The class given is functional, cell-based. The settings on record: Homo sapiens.
Another assay concerns Salmon testes DNA. In words: DNA intercalators displacing acridine orange, dose response, artefact control for KSHV LANA DNA-binding inhibitor project, biochemical, fluorescence polarization, cherry-picked samples, set 2 (AID 504727). Set-up: species or system Salmonidae.
For a further assay, the target named is T2, ORF 73 (Human herpesvirus 8, UniProt O40947).
T2 sequence (O40947 whole entry): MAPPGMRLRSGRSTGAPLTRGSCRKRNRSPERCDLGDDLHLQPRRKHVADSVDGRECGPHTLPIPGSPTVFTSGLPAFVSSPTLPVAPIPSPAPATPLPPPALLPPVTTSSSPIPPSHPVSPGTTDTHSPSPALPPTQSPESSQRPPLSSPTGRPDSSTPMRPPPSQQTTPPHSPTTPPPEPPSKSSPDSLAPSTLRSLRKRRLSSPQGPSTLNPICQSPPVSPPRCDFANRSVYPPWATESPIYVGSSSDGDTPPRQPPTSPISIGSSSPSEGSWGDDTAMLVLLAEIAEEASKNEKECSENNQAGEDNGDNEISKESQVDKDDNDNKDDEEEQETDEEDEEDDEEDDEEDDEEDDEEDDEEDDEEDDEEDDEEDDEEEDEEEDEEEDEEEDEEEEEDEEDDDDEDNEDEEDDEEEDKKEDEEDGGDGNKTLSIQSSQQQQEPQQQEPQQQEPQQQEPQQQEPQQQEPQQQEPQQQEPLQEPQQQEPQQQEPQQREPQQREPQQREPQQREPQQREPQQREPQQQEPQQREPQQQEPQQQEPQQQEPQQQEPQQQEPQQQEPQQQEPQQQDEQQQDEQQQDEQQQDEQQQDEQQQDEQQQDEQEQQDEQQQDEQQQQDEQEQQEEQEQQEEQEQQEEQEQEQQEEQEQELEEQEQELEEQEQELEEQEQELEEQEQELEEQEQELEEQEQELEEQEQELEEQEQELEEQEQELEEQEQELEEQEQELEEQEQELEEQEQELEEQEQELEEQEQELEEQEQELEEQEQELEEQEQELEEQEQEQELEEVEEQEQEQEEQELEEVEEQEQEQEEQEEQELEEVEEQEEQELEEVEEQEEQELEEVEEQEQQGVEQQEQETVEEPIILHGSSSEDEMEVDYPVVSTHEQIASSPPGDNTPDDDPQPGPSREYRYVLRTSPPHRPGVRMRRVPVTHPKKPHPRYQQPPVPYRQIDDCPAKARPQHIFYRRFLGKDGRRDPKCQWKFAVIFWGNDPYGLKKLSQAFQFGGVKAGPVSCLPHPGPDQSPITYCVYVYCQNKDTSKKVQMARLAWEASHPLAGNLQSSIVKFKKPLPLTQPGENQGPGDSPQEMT
Nature of the assay: inhibitors of C-LANA binding to LBS DNA, dose response, biochemical, fluorescence polarization, cherry-picked samples (AID 504725).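 Further: fluorescence polarization of a labeled DNA duplex reporting LANA DNA binding; potency is for inhibitors that block LANA binding to the DNA.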 The arrangement: species or system Human gammaherpesvirus 8.

Assay [9] has as its target T3, Endoribonuclease toxin MazF (Escherichia coli K-12, UniProt P0AE70).
T3 sequence (P0AE70 whole entry): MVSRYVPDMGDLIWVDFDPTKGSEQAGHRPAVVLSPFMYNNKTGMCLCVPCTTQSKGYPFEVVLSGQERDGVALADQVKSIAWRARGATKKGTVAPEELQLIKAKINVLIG
Nature of the assay: MazF toxin RNase activators, dose response, biochemical, fluorescence, single-stranded RNA substrate, uHTS hits (AID 588481). The class given is functional.

Assay [10] concerns the target T3, Endoribonuclease toxin MazF. Nature of the assay: fluorescent RNA oligo signal without MazF, dose response, counter-screen for MazEF activator project, biochemical, fluorescence, single-stranded RNase substrate (AID 588502). The class given is functional.
Assay [11] deals with Dual specificity protein phosphatase 3 (Homo sapiens, UniProt P51452). In words: VHR1 inhibitor Ki determination, SAR follow-up, biochemical, colorimetric (AID 2004).
Assay [12] deals with Streptococcus sp. 'group A'. In words: growth inhibition of control SK(-) GAS strain, dose response, counter-screen for streptokinase expression inhibitor project, luminescence, kanamycin, BacTiterGlo, confirmation (AID 1900). Type of assay: functional, organism-based.
The nature of assay [13]: cytotoxicity in HPDE-C7 cells, cell-based, fluorescence, HTS (AID 430). The settings on record: Homo sapiens. The class given is functional.
Assay [14] can be described thus: cytotoxicity in KRAS-transformed pancreatic duct cells, primary screen, cell-based, fluorescence, HTS (AID 431).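 Further: cell line used: HPDE-C7K.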 The settings on record: Homo sapiens. Type of assay: functional.
For the next assay, the system named is Streptococcus. Nature of the assay: Group A Streptococcus viability loss, dose response, counter-screen for streptokinase expression inhibitor project, luminescence, BacTiterGlo (AID 1915).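 Further: potency for reduction of bacterial viability or growth.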 The class given is functional, organism-based.
The target in a further assay is X-box-binding protein 1 (Homo sapiens, UniProt P17861). The class given is functional, Cricetulus griseus.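 Further: confirmatory dose-response counter-screen serving a CHOP assay.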

The source made the active and inactive calls.

T1 sequence (P11940 whole entry): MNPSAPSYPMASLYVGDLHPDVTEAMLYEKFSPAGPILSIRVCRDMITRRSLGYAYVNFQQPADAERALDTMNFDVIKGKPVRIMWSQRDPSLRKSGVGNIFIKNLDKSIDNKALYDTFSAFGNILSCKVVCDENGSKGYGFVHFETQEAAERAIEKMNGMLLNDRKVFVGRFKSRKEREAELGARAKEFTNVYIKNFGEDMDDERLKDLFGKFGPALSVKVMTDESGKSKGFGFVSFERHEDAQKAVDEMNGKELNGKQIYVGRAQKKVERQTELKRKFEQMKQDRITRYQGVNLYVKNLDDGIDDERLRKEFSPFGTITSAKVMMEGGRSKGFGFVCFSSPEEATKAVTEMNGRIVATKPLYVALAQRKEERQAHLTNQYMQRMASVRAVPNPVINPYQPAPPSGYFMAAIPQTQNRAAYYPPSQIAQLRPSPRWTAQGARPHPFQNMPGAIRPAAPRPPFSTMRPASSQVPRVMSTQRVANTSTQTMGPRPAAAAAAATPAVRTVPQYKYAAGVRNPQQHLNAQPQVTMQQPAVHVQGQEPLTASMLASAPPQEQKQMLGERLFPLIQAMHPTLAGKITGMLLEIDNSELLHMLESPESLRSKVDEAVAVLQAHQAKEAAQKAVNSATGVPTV
Sequence of Dual specificity protein phosphatase 3 (P51452 whole entry): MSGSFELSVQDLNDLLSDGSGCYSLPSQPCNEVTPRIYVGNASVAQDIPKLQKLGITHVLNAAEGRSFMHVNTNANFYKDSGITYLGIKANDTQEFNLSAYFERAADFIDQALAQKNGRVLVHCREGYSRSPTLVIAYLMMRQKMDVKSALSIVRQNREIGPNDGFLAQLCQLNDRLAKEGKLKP
Sequence of Peroxisome proliferator-activated receptor gamma/Nuclear receptor corepressor 2 (P37231 whole entry): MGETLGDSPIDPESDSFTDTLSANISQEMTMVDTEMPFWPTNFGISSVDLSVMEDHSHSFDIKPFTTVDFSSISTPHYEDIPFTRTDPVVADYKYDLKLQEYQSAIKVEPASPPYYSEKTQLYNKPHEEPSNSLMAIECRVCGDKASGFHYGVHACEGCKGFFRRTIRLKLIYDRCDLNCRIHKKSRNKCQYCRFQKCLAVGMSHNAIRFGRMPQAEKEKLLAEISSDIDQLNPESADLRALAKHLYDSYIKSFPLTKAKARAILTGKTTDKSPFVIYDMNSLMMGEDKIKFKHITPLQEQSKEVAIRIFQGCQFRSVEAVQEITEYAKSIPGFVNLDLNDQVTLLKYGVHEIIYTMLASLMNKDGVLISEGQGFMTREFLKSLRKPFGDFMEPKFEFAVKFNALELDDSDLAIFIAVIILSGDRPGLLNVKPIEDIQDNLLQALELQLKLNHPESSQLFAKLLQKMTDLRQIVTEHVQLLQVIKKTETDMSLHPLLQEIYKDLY
Sequence of Peroxisome proliferator-activated receptor gamma/Nuclear receptor corepressor 2 (Q9Y618 whole entry): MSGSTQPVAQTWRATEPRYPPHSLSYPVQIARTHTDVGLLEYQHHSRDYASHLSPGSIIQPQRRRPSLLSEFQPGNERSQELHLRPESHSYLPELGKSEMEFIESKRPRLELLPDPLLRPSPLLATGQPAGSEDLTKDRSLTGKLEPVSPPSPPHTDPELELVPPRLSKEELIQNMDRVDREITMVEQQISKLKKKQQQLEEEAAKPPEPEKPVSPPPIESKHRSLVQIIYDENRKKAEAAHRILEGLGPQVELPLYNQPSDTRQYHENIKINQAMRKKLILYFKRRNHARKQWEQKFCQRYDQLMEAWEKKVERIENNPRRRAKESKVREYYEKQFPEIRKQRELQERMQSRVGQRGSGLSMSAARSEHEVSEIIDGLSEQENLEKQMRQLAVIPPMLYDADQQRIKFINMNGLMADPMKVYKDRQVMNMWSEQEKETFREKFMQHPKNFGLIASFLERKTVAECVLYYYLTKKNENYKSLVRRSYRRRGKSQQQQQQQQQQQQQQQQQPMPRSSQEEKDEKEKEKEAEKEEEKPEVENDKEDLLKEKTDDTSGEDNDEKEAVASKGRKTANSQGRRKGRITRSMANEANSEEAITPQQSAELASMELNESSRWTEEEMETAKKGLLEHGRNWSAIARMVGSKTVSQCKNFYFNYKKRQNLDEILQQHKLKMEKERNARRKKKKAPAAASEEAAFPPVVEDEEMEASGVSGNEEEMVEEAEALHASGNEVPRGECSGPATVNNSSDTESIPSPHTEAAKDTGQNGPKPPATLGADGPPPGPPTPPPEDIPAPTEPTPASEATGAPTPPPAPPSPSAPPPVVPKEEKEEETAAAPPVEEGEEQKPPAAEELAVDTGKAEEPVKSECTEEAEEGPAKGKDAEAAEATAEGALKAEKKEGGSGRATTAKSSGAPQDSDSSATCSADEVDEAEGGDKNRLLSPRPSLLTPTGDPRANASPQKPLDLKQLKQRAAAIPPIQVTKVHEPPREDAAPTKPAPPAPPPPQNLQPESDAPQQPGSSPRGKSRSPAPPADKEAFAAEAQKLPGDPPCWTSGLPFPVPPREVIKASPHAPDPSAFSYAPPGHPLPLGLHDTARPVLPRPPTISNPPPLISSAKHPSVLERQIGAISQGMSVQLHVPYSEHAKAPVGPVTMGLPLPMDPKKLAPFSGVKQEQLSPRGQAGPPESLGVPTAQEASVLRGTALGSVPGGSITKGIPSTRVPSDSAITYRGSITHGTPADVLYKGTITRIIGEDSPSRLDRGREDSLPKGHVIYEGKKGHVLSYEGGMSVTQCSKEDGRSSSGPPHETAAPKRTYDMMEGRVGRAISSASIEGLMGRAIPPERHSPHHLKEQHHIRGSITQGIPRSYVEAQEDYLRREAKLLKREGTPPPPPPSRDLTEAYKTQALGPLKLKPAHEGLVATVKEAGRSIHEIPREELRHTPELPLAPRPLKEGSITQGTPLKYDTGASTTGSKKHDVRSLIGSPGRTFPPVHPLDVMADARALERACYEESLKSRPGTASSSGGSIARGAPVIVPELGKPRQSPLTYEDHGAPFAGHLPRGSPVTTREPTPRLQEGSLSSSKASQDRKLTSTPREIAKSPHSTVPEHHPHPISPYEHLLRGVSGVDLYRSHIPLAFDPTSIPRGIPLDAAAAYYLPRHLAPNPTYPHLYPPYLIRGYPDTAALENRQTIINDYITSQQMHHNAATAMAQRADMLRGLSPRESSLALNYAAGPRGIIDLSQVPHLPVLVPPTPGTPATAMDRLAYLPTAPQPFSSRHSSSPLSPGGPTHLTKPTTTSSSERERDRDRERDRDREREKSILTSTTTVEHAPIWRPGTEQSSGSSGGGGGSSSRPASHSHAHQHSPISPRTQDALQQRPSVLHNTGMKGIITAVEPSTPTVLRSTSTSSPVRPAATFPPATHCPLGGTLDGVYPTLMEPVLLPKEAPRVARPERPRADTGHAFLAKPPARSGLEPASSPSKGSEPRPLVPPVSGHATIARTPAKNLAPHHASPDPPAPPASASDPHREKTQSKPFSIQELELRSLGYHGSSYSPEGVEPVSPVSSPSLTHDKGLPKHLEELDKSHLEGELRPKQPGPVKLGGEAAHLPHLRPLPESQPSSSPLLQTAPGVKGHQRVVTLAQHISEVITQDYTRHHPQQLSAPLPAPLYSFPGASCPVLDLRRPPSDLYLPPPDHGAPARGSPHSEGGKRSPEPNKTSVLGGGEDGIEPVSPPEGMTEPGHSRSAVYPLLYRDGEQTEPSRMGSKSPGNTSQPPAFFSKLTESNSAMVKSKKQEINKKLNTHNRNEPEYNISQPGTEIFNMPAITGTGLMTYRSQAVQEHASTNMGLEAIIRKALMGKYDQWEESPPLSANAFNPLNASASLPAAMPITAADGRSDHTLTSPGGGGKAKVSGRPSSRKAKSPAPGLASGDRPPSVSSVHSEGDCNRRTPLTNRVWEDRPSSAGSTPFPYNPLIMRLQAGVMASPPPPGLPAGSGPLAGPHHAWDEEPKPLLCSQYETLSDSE
Sequence of Luciferin 4-monooxygenase (P08659 whole entry): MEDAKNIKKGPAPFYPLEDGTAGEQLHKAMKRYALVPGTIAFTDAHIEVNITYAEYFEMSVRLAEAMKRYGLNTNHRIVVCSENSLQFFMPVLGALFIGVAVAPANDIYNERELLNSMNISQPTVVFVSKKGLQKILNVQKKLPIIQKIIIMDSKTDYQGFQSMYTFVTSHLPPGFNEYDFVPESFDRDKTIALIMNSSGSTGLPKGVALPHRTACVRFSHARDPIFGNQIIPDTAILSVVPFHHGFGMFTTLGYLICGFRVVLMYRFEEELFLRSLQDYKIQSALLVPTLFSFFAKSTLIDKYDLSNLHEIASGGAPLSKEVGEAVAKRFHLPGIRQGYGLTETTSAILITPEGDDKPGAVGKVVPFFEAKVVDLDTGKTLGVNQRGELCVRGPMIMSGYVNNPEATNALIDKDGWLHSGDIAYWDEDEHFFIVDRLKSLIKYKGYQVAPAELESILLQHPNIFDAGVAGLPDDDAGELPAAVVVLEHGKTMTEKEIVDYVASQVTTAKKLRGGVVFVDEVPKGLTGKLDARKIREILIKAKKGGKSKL
Sequence of Photoreceptor-specific nuclear receptor (Q9Y5X4 whole entry): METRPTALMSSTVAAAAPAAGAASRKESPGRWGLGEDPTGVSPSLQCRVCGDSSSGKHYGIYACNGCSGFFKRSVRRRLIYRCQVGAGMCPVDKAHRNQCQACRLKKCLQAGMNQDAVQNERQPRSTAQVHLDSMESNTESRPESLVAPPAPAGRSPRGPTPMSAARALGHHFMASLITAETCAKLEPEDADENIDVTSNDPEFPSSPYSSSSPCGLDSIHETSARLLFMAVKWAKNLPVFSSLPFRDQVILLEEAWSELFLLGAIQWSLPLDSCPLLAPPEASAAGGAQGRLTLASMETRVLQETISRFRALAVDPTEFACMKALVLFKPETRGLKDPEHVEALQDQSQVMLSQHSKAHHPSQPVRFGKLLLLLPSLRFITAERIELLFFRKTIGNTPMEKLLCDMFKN
Sequence of X-box-binding protein 1 (P17861 whole entry): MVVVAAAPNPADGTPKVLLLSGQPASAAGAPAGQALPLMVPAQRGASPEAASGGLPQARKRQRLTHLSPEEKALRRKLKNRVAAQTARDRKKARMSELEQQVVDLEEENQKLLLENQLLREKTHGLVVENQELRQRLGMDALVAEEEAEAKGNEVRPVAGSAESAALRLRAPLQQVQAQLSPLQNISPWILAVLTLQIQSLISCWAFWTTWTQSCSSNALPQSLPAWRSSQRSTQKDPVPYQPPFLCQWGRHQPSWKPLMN

On to `Cc1csc(NC(=O)c2sc3nc(-c4cccs4)ccc3c2N)n1`, for which the EC50 was 15.8 µM (not active) in the assay with HEK293 [1], > 8 µM (not active) in [2], > 8 µM (inactive) in the assay with HEK293 [3] and 6.54 µM (active) in [4].
Take `COc1cccc(NC(=S)Nc2cc(C)cc(C)n2)c1`: the IC50 in assay [5] is 2.04 µM (active); in assay [6], 1.61 µM (active); in assay [7] it was > 66 µM (inactive); in [8], > 66 µM (inactive).
Consider `COc1ccc(-c2cc(C(F)(F)F)c3c(N)c(C(=O)NCCSC)sc3n2)cc1`, for which the AC50 was 45.9 µM (active) with HeLa, 58.9 µM (active) with Salmon testes DNA and 34.5 µM (active) on ORF 73. Moreover, the figures for the EC50 in assay [9] and in assay [10] were > 99 µM (inactive) and 61.6 µM (inactive), respectively.
Turning to `CCOC(=O)c1sc(N/N=C/c2cccc(O)c2)nc1C`, in assay [11], the Ki was 120 µM (inactive).
Consider `O=C1c2n[nH]c(-c3ccccc3O)c2C(c2cccc(Cl)c2)N1Cc1ccco1` (centres undefined), for which the EC50 in assay [12] was 6.78 µM (active); in [13], 7.07 µM (active); in assay [14], 9.83 µM (active); in the assay on Streptococcus, > 150 µM (inconclusive). For the same compound, on X-box-binding protein 1, the “Absolute IC50 (XBP1)” value was determined as 10 µM.
